Results published in paper PMC9986241 (Signal Transduction and Targeted Therapy, 2023).

What was measured:
Pharmacokinetic assay = type: in vivo, Kunming mice; details: Kunming, mouse, plasma; oral gavage 50 mg/kg vs tail vein injection 25 mg/kg
From the text: For pharmacokinetic study of erianin, LC-MS/MS was implemented to monitor the plasma concentration over times and associated parameters. Chromatographic separation was obtained on an ZORBAX SB-C18 column (3.5 μm, 3.0 × 100 mm). 85% acetonitrile was selected as the mobile phase. The conditions of ESI source were optimized as follows: Spray voltage 4000 V; nitrogen for dying with a flow rate of 11 L/min. Detect the selected reaction monitoring mode for quantification, m/z 315.0 > 180.8 for IS and m/z 319.1 > 150.9 for erianin, respectively. 2′-Hydroxy-4,4′,6′-trimethoxychalcone (500 ng/mL) was selected as internal standard. After the validation of standard curves (0.1, 1, 5, 10, 50, 100, 500, 800, and 1200 ng/mL for oral; 10, 50, 100, 500, 800, 1200, 2400, 4800, 9600 ng/mL for intravenous) and methods including selectivity, linearity, sensitivity, precision and stability, erianin was given to Kunming mice through oral gavage (50 mg/kg, n = 6) or tail vein injection (25 mg/kg, n = 4). A series of time points including 0, 0.083, 0.25, 0.5, 0.75, 1, 2, 3, 4, and 8 h were set for blood extraction. The pharmacokinetic parameters were analyzed using DAS 2.0. Absolute bioavailability (F%) = (AUCoral × Div)/(AUCiv × Doral) × 100%.

[1] = test system: normal human dermal fibroblasts (NHDF); experiment: Cytotoxicity MTT assay; type: cell-based; details: 0, 12.5, 25, 50 nM
Experimental: (§1) The synergism and antagonism (CI value) were determined and analyzed using CompuSyn 1.0.
(§2) For cytotoxicity test, normal NHDF (5000 cells/well) and NHEM cell line (3000 cells/well) were planted into 96-well plates. For cell proliferation assay, A375 (1500 cells/well), SK-MEL-28 (3000 cells/well), SK-MEL-2 (4000 cells/well), and HCT116 (1500 cells/well) were planted into 96-well plates, determined concentration of drug was added after culture for 24 h. The viability of the cells was detected within 72 h using MTT solution (5 mg/mL). The absorbance at 570/490 nm was quantified by the use of the microplate reader.

[2] = test system: normal human epidermal melanocytes (NHEM); experiment: Cytotoxicity MTT assay; type: cell-based; details: 0, 12.5, 25, 50 nM
Experimental: as §1, §2

B16F10 CDX = experiment: B16F10 cell xenograft; type: in vivo, C57BL-6J mice
From the text: Decrease of phospho-MEK1/2 was only observed in erianin and erianin/vemurafenib dual-therapy group, and even all erianin, erianin/vemurafenib dual-therapy, cobimetinib, and cobimetinib/vemurafenib dual-therapy group inhibited phosphorylation of ERK1/2 (Fig. 7d). […] Several clinical studies reveal that immune checkpoint therapies PD-1/PD-L1 synergistically promote RAF inhibitor in treatment of melanoma. Therefore, we checked the immune response involved in antitumor effect of erianin in vivo. After immunosuppression by hydrocortisone (50 mg/kg) for 1 week, B16F10 cell was implanted into C57BL-6J mice followed by vehicle or drug treatment. […]
Fig. 7 Erianin exerts antitumor efficacy in melanoma and colorectal cancer in vivo. a Tumor pharmacodynamic assay was performed in tumor-bearing NPG mice (tumor has been passaged from melanoma patient to mice for three generations). […] Tumor volume was measured once a week. […] One-way ANOVA test. ***p < 0.001. e Antitumor efficacy of erianin with or without immunity using B16F10 cell xenograft in C57BL-6J mouse. f, g Trend of tumor volume over time and tumor weight was measured after treatment on the last day of the study.
Peripheral blood or spleen lymphocytes (CD8a^+, CD4^+, and NK cell) in B16F10 CDX model after treated with erianin were quantified using BD FACSAria^TM III cell sorter. […]

BRAF = target: T1, BRAF (Homo sapiens, UniProt P15056, V600E); experiment: Erianin-conjugated Sepharose 4B bead pull-down assay; type: binding; details: in vitro and ex vivo (A375 cell lysate)
T1 construct: endogenous in cells; host or cells: A375
Experimental: (§3) Cell lysate (500 μg) or recombinant proteins (200 ng) were incubated with erianin-CNBr activated sepharose 4B overnight at 4 °C, and the protein-beads complex was washed four times by the use of rotational incubator to remove non-specific binding. Western blotting was developed to check the pull-down bands.

SK-MEL-2 (NRAS mut) = experiment: Cell proliferation MTT assay; type: cell-based; details: Homo sapiens, SK-MEL-2, 72 h
Experimental: as §1, §2

SK-MEL-28 (BRAF V600E) = experiment: Cell proliferation MTT assay; type: cell-based; details: Homo sapiens, SK-MEL-28, 72 h
Experimental: as §1, §2

HCT116 (KRAS mut) = experiment: Cell proliferation MTT assay; type: cell-based; details: Homo sapiens, HCT-116, 72 h
Experimental: as §1, §2

A375 (BRAF V600E) = experiment: Cell proliferation MTT assay; type: cell-based; details: Homo sapiens, A-375, 72 h
Experimental: as §1, §2

MEK1/2 = experiment: Erianin-conjugated Sepharose 4B bead pull-down assay; type: binding, human; details: in vitro and ex vivo (A375 cell lysate)
Experimental: 293 T cells were transfected with plasmids of pcDNA3.1-3×Flag-C-MAP2K1/MAP2K1 (K97A, M146A), MAP2K2/MAP2K1 (K101A, M150A), or CRAF/CRAF (K375A). […]
as §3

T1 sequence (P15056 whole entry V600E): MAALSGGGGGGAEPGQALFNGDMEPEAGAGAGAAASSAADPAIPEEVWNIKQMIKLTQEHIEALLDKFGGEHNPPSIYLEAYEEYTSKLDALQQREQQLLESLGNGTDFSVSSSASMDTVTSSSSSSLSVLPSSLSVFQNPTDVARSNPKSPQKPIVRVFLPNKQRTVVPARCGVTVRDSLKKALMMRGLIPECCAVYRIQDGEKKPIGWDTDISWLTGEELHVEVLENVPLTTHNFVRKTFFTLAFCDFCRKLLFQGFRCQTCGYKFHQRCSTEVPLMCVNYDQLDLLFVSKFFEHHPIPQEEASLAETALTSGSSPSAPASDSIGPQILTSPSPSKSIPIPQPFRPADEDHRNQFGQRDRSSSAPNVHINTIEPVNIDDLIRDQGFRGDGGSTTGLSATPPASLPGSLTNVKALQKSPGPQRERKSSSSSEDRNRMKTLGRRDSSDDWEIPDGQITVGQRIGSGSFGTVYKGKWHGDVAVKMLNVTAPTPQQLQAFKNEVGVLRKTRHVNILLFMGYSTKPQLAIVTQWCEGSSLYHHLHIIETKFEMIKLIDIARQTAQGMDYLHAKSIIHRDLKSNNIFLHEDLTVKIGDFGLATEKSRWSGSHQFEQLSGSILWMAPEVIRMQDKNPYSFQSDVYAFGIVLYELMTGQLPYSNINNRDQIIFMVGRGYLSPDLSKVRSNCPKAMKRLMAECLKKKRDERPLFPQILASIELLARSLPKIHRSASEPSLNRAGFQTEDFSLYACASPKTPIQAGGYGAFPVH

## COc1ccc(CCc2cc(OC)c(OC)c(OC)c2)cc1O [Erianin]
Pharmacokinetic assay
  bioavailability: 8 ± 1.1%
[1]
  cytotoxicity: no toxicity
[2]
  cytotoxicity: no toxicity
B16F10 CDX; flow cytometry after erianin treatment
  CD8a+, CD4+ T cells, and NK cells: increased significantly
B16F10 CDX; monotherapy
  tumor growth: inhibited tumor growth
BRAF
  binding in pull-down: directly bound
SK-MEL-2 (NRAS mut)
  IC50: 59.7 ± 7.2 nM
SK-MEL-28 (BRAF V600E)
  IC50: 50.6 ± 1.7 nM
HCT116 (KRAS mut)
  IC50: 20.6 ± 2.2 nM
A375 (BRAF V600E)
  IC50: 12 ± 0.9 nM
MEK1/2
  binding in pull-down: directly bound
